In patent US20210308103A1, “TASK-1 INHIBITORS FOR TREATMENT OF ATRIAL ARRHYTHMIAS” (Universität Heidelberg, priority 2018, published 2021):
Like-named read-outs stand apart in the source and are kept apart here.

Columns and labels:
TASK-1 = TASK-1 (Homo sapiens, UniProt O14649); test: TASK-1 current inhibition, voltage clamp in Xenopus laevis oocytes (human channel); assay type: cell-based; set-up: expressed in transfected cells; host or cells: Xenopus laevis oocytes; details: for Competition between ketodoxapram and doxapram at TASK-1: both compounds present, FIG. 1E; for IC50: voltage clamp, FIG. 1B/1C
Excerpt: FIG. 1: Inhibitory effects of doxapram and ketodoxapram on TASK-1 K-ion channels, recorded by voltage-clamp measurements in Xenopus laevis oocytes. A) Concentration-effect curve for doxapram on porcine TASK-1; B) Concentration-effect curve for doxapram on human TASK-1; C) Concentration-effect curve for ketodoxapram on human TASK-1; […] E) Inhibition of TASK-1 by doxapram, ketodoxapnram, and mixtures thereof. Concentration-response curves for ketodoxapram and doxapram. TASK-1 current inhibition was recorded by voltage clamp measurements in Xenopus laevis oocytes according to standard protocols. […] The ion channels TASK-1 ([…].1), Kv4.3, Kv1.5, Kv2.1, Kir3.1/4, Kv1.4 are predominantly expressed in the atrial myocardium. The ion channel TASK-3 ([…].1) is not expressed in the human myocardium but structurally related to TASK-1 (Schmidt C et al. (2015), Circulation 132(2): 82). Ion channel current inhibition was measured in Xenopus laevis oocytes (FIG. 1 D)). […] To test for competition between ketodoxapram and doxapram, concentration-response curves were determined by measuring TASK-1 current inhibition recorded by voltage clamp measurements in Xenopus laevis oocytes.

[1] = Plasma trough concentrations in pigs during long-term administration; assay type: in vivo, pig; details: repeated intravenous doses of doxapram over 18 days, FIG. 9
Experimental: FIG. 9: Plasma trough concentrations of doxapram and its metabolite ketodoxapram in pigs during repetitive intravenous administration of doxapram over 18 days.
FIG. 10: Plasma concentrations of ketodoxapram in pigs during long-term administration of ketodoxapram.
Pigs were administered repeated doses of doxapram over a period of several days.

[2] = system: pigs with persistent atrial fibrillation; test: Cardioversion of pacing-induced persistent atrial fibrillation in pigs; assay type: in vivo, pig
Experimental: Doxapram and ketodoxapram were successfully applied for cardioversion in pigs. To induce atrial fibrillation in pigs, at first, pacemakers were implanted. Atrial fibrillation was induced by atrial rapid pacing. […] On average, pharmacological cardioversion to sinus rhythm was successful 3 minutes after injection of doxapram or ketodoxapram.

Kv1.5 = molecular target: T1, Kv1.5 (Homo sapiens, UniProt P22460); test: Ion channel current inhibition in Xenopus laevis oocytes, Kv1.5; assay type: cell-based; details: FIG. 1D
T1 construct: expressed in transfected cells; host or cells: Xenopus laevis oocytes
Excerpt: FIG. 1: Inhibitory effects of doxapram and ketodoxapram on TASK-1 K-ion channels, recorded by voltage-clamp measurements in Xenopus laevis oocytes. A) Concentration-effect curve for doxapram on porcine TASK-1; B) Concentration-effect curve for doxapram on human TASK-1; C) Concentration-effect curve for ketodoxapram on human TASK-1; […] E) Inhibition of TASK-1 by doxapram, ketodoxapnram, and mixtures thereof. The ion channels TASK-1 ([…].1), Kv4.3, Kv1.5, Kv2.1, Kir3.1/4, Kv1.4 are predominantly expressed in the atrial myocardium. The ion channel TASK-3 ([…].1) is not expressed in the human myocardium but structurally related to TASK-1 (Schmidt C et al. (2015), Circulation 132(2): 82). Ion channel current inhibition was measured in Xenopus laevis oocytes (FIG. 1 D)).

in vivo = details: pig
Excerpt: FIG. 4: Quantification of doxapram and ketodoxapram in porcine tissue samples. A) doxapram and ketodoxapram were quantified in brain tissue samples (CNS) and plasma samples of two pigs; B) Concentrations of doxapram and ketodoxapram in brain tissues of pigs treated with doxapram, which was metabolized to ketodoxapram.
FIG. 6: Correlation between plasma concentration and brain concentration of doxapram and its metabolite ketodoxapram in pigs after intravenous administration of doxapram; pig numbers and their group status are indicated (SR: sinus rhythm; AF: atrial fibrillation).
FIG. 7: Correlation between plasma concentration and brain concentration of ketodoxapram in pigs after intravenous administration of ketodoxapram; pig numbers and their group status are indicated (AF: atrial fibrillation).
FIG. 8: Short-term distribution of doxapram and its metabolite ketodoxapram in pigs 30 min after administration of doxapram; pig numbers and their group status are indicated (SR: sinus rhythm).
Quantification of ketodoxapram and doxapram in porcine tissues. In two pigs, doxapram and ketodoxapram were administered and quantified in brain tissue samples (CNS) and plasma samples (FIG. 4A).
(§1) Analysis of doxapram and ketodoxapram in tissues. Mass spectrometry, in particular liquid chromatography tandem-mass spectrometry (LC-MS/MS) with deuterated internal standard, was used to quantify the concentrations of doxapram and ketodoxapram in tissue samples and plasma.
Pigs with sinus rhythm or atrial fibrillation were treated with intravenous doxapram and plasma and brain samples were taken essentially simultaneously.
In two pigs, doxapram and ketodoxapram concentrations were determined in brain and plasma 30 min after intravenous administration.

[3] = Plasma pharmacokinetics in pigs after intravenous doxapram; assay type: in vivo, pig; details: for Tmax / AUC(0-inf) / Cmax / AUC / half-life: 1.8 mg/kg body weight; for Tmax / AUCextra / AUC(0-inf) / Cmax / AUC / half-life: intravenous bolus of doxapram; for AUC(0-inf) / Cmax / AUC / half-life: pig, plasma, iv; for AUC: read-out: AUC0-n
Excerpt: FIG. 3: Pharmacokinetics of doxapram and ketodoxapram in pigs after intravenous administration. Concentration of doxapram and ketodoxapram, respectively, as measured in plasma samples taken at the indicated time points.
Pharmacokinetics of doxapram and ketodoxapram.
as §1
Doxapram was administered as an intravenous bolus to pigs and plasma concentration was determined over time.

pigs = test: Adverse effects observed in pigs on overdosing; assay type: in vivo, pig; details: pigs 40-60 kg body weight
Experimental: Adverse effects observed in pigs. […] These effects were not observed when an overdose of ketodoxapram was administered.

[4] = oral administration of enteric-coated doxapram; cited from earlier work
[5] = Xenopus laevis oocytes, FIG. 1D
[6] = intravenous 1.8 mg per kg body weight
[7] = iv, Brain concentration as percentage of plasma concentration
[8] = average of pigs 98, 99, 100, plasma
[9] = average of pigs 98, 99, 100, plasma, read-out: T1/2 (converted)
[10] = pig 98, plasma, read-out: T1/2 (converted)
[11] = pig 99, plasma, read-out: T1/2 (converted)
[12] = pig 100, plasma, read-out: T1/2 (converted)
[13] = pigs, summary of Table 1, read-out: Elimination half-life
[14] = intravenous 0.5 mg per kg body weight

Chain of TASK-1 (O14649 whole entry): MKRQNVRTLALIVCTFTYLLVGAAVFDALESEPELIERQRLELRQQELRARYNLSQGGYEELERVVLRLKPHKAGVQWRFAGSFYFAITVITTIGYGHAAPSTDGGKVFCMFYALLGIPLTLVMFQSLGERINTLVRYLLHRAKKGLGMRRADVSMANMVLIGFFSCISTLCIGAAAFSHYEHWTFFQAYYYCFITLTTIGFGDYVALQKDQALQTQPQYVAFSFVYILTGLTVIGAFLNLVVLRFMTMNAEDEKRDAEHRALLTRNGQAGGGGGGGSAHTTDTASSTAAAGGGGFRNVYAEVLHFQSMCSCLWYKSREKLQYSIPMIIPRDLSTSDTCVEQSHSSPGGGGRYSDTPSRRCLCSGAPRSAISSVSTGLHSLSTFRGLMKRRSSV
T1 sequence (P22460 whole entry): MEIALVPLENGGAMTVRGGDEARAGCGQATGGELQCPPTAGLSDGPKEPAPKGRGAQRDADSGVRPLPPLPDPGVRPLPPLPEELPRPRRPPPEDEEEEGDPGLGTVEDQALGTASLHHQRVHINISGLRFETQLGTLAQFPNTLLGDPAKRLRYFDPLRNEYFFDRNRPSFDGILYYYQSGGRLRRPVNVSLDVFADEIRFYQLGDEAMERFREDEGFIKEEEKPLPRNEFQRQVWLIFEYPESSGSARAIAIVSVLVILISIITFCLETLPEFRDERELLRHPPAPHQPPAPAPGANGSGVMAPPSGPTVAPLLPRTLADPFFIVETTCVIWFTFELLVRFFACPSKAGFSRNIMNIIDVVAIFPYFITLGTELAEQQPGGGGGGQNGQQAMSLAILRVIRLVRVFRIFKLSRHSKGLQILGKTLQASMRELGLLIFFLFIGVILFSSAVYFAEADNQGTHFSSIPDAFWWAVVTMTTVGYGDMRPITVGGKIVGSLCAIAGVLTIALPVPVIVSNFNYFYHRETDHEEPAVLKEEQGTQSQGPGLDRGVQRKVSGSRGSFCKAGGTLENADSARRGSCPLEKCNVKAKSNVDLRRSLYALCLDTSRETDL

Structure (SMILES): CCN1CC(CCN2CCOCC2)C(c2ccccc2)(c2ccccc2)C1=O (stereo not shown) [doxapram, 1-ethyl-4-(2-morpholin-4-ylethyl)-3,3-diphenyl-pyrrolidin-2-one]
- Most strongly inhibited ion channel among TASK-1, TASK-3, Kv4.3, Kv1.5, Kv2.1, Kir3.1/4, Kv1.4 (TASK-1; [5]): TASK-1 was the most strongly inhibited ion channel
- Competition between ketodoxapram and doxapram at TASK-1 (TASK-1): replaced at the ion channel by ketodoxapram
- IC50 (TASK-1; Xenopus laevis oocytes): 500 nM
- Course of plasma trough concentrations [1]: initial accumulation phase
- Cardioversion of persistent atrial fibrillation [2, 6]: sufficient for cardioversion in all tested animals
- Time to cardioversion to sinus rhythm after injection, on average [2, 6]: 3 min
- Inhibition of ion channel Kv1.5 (Kv1.5): not inhibited
- Plasma concentrations of doxapram and ketodoxapram relative to each other (in vivo): similar
- Accumulation in the brain relative to ketodoxapram (in vivo; iv): 60-500 times
- Detection of doxapram after ketodoxapram administration (in vivo; iv): not detected
- Kp (in vivo; [7]): 0.0024
- Kp at 30 min (in vivo; [7]): 0.001
- Tmax ([3]; pig 98, plasma): 0 h
- AUCextra [3, 8]: 0.80%
- Metabolism of doxapram in pigs ([3]; doxapram 1.8 mg/kg body weight, plasma samples, FIG. 3): rapidly metabolized to ketodoxapram
- AUCextra ([3]; pig 98, plasma): 0.61%
- AUCextra ([3]; pig 99, plasma): 1.53%
- AUCextra ([3]; pig 100, plasma): 0.26%
- AUC(0-inf) [3, 8]: 2950 ng·h/mL
- Cmax [3, 8]: 4090 ng/mL
- AUC [3, 8]: 2930 ng·h/mL
- half-life [3, 9]: 2.12 h
- AUC(0-inf) ([3]; pig 98, plasma): 2200 ng·h/mL
- Cmax ([3]; pig 98, plasma): 2310 ng/mL
- AUC ([3]; pig 98, plasma): 2180 ng·h/mL
- half-life [3, 10]: 1.92 h
- AUC(0-inf) ([3]; pig 99, plasma): 3180 ng·h/mL
- Cmax ([3]; pig 99, plasma): 5060 ng/mL
- AUC ([3]; pig 99, plasma): 3130 ng·h/mL
- half-life [3, 11]: 2.65 h
- AUC(0-inf) ([3]; pig 100, plasma): 3480 ng·h/mL
- Cmax ([3]; pig 100, plasma): 4900 ng/mL
- AUC ([3]; pig 100, plasma): 3470 ng·h/mL
- half-life [3, 12]: 1.79 h
- half-life [3, 13]: 2 to 3 h
- Central nervous adverse effects (pigs): clear signs of central nervous adverse effects
- Concentrations of doxapram and ketodoxapram in plasma relative to each other [4]: about equal

Structure (SMILES): CCN1CC(CCN2CCOCC2=O)C(c2ccccc2)(c2ccccc2)C1=O (stereo not shown) [ketodoxapram, 4-(2-(1-ethyl-5-oxo-4,4-diphenyl-3-pyrrolidinyl)ethyl)-3-morpholinone]
- Effect on TASK-1 compared with doxapram (TASK-1; [5]): significantly stronger than the effect of doxapram
- Most strongly inhibited ion channel among TASK-1, TASK-3, Kv4.3, Kv1.5, Kv2.1, Kir3.1/4, Kv1.4 (TASK-1; [5]): TASK-1 was the most strongly inhibited ion channel
- Competition between ketodoxapram and doxapram at TASK-1 (TASK-1): stronger affinity to TASK-1
- IC50 (TASK-1; Xenopus laevis oocytes): 1250 nM
- Course of plasma trough concentrations [1]: initial accumulation phase
- Cardioversion of persistent atrial fibrillation [2, 14]: sufficient for cardioversion in all tested animals
- Time to cardioversion to sinus rhythm after injection, on average [2, 14]: 3 min
- Inhibition of ion channel Kv1.5 (Kv1.5): not inhibited
- Concentration in brain tissue compared with doxapram in the same tissue (in vivo): several orders of magnitude lower
- Crossing of the blood-brain barrier compared with doxapram (in vivo): much less effectively than doxapram
- Plasma concentrations of doxapram and ketodoxapram relative to each other (in vivo): similar
- Brain concentration as percentage of the corresponding doxapram concentration (in vivo; iv): 0.2-1.7%
- Tmax ([3]; pig 98, plasma): 1 h
- AUCextra [3, 8]: 6.99%
- AUCextra ([3]; pig 98, plasma): 4.65%
- AUCextra ([3]; pig 99, plasma): 12.36%
- AUCextra ([3]; pig 100, plasma): 3.96%
- AUC(0-inf) [3, 8]: 308 ng·h/mL
- Cmax [3, 8]: 47.9 ng/mL
- AUC [3, 8]: 282 ng·h/mL
- half-life [3, 9]: 2.81 h
- AUC(0-inf) ([3]; pig 98, plasma): 157 ng·h/mL
- Cmax ([3]; pig 98, plasma): 31.8 ng/mL
- AUC ([3]; pig 98, plasma): 149 ng·h/mL
- half-life [3, 10]: 2.59 h
- AUC(0-inf) ([3]; pig 99, plasma): 504 ng·h/mL
- Cmax ([3]; pig 99, plasma): 63.5 ng/mL
- AUC ([3]; pig 99, plasma): 442 ng·h/mL
- half-life [3, 11]: 3.48 h
- AUC(0-inf) ([3]; pig 100, plasma): 265 ng·h/mL
- Cmax ([3]; pig 100, plasma): 48.3 ng/mL
- AUC ([3]; pig 100, plasma): 254 ng·h/mL
- half-life [3, 12]: 2.36 h
- half-life [3, 13]: 2 to 3 h
- Central nervous adverse effects (pigs): not observed
- Concentrations of doxapram and ketodoxapram in plasma relative to each other [4]: about equal
